The values that follow come from patent US6399641B1, “2H-tetrazole-amide compounds with therapeutic activity as metabotropic glutamate receptor agonists” (Hoffmann-la Roche Inc., priority 2000, dated 2002).

The target in one data set is T1, rat mGlu1a receptor (Rattus norvegicus, UniProt P23385).
T1 construct: expressed in transfected cells; host or cells: EBNA cells (transient transfection)
As to the kind of experiment: [Ca2+]i measurement (FLIPR) on mGlu1a transfected EBNA cells. The data set is classed as cell-based. To be noted: agonist activity, rat mGlu1a transiently transfected EBNA cells, Fluo-3 AM. How it is done:
cDNA encoding for rat mGlu1a receptor obtained from Prof. S. Nakanishi (Kyoto, Japan) was transiently transfected into EBNA cells using a procedure described by Schlaeger & Christensen, 1998. [Ca^2+]i measurement were performed on mGlu1a transfected EBNA cells after incubation of the cells with Fluo-3 AM (0.5 μM final concentration) for 1 hour at 37° C. followed by 4 washes with assay buffer (DMEM supplemented with Hank's salt and 20 mM HEPES). [Ca^2+]i measurement were done using a fluorometric imaging plate reader (FLIPR, Molecular Devices Corporation, La Jolla, Calif., USA). When compounds were evaluated as antagonists they were tested against 10 μM glutamate as agonist.
The inhibition (antagonists) or activation (agonists) curves were fitted with a four parameter logistic equation giving EC50, IC50 and Hill coefficient using the iterative non linear curve fitting software Origin (Microcal Software Inc., Northampton, Mass., USA). E.-J. Schlaeger and K. Christensen Transient gene expression in mammalian cells grown in serum-free suspension culture. Cytotechnology, 30:71-83, 1999.

T1 sequence (P23385 19-1199): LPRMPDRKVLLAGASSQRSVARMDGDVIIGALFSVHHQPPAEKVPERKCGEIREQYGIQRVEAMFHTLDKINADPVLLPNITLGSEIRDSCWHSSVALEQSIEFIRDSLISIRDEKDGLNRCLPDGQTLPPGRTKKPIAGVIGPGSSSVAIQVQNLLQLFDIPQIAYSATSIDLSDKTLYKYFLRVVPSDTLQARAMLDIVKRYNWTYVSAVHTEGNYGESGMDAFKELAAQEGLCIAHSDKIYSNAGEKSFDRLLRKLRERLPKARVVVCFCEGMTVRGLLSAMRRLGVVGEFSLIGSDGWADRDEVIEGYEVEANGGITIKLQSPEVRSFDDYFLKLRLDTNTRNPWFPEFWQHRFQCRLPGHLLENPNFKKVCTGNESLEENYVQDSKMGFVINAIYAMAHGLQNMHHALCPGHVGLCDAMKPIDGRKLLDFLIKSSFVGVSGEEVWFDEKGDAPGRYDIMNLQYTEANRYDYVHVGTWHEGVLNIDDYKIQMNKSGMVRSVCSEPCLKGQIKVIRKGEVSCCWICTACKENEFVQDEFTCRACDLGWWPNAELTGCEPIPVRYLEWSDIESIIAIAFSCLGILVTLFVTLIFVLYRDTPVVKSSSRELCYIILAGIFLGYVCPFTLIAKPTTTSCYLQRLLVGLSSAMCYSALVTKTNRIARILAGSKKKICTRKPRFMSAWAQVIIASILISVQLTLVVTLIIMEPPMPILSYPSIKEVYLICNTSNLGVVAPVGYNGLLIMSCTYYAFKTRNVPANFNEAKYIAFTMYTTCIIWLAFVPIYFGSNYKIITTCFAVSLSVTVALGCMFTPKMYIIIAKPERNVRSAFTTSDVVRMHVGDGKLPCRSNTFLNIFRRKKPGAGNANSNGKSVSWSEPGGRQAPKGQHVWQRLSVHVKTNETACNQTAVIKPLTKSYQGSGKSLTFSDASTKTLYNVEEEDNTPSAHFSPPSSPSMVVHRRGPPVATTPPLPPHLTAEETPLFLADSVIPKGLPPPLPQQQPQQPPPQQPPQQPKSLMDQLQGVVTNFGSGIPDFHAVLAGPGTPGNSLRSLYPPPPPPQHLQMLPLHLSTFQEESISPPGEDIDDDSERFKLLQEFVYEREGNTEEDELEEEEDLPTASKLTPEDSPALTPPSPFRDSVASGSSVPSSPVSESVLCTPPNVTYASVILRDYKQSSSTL

With “9H-Thioxanthene-9-carboxylic acid (2-ethyl-2H-tetrazol-5-yl)-amide [Example 25]”, a half-maximal response at rat mGlu1a receptor (EC50) required 1390 nM.
Compound `CCn1nnc(NC(=O)C2c3ccccc3COc3ccccc32)n1` (racemic) [Example 24, (RS)-6,11 -Dihydro-dibenzo[b,e]oxepine-11-carboxylic acid (2-ethyl-2H-tetrazol-5-yl)-amide] came in with a melting point of 158 to 159 °C. For the same compound, the EC50 at rat mGlu1a receptor came out at 470 nM.
On to `CCn1nnc(NC(=O)C2c3ccccc3Oc3cccc(OC)c32)n1` (racemic) [Example 26, (RS)-1-Methoxy-9H-xanthene-9-carboxylic acid (2-ethyl-2H-tetrazol-5-yl)-amide], for which the melting point was 259 to 260 °C (dec.).
As to `CCn1nnc(NC(=O)C2c3ccccc3Oc3ccc(OC)cc32)n1` (racemic) [Example 27, (RS)-2-Methoxy-9H-xanthene-9-carboxylic acid (2-ethyl-2H-tetrazol-5-yl)-amide], the melting point is 208 to 210 °C (dec.). In addition, the 50% effective concentration (EC50) at rat mGlu1a receptor was 190 nM.
For `CCn1nnc(NC(=O)C2c3ccccc3Oc3c(OC)cccc32)n1` (racemic) [Example 28, (RS)-4-Methoxy-9H-xanthene-9-carboxylic acid (2-ethyl-2H-tetrazol-5-yl)-amide], the melting point was 239 to 240 °C (dec.).
With `Cn1nnc(NC(=O)C(c2ccccc2)c2ccccc2)n1` [Example 1, N-(2-Methyl-2H-tetrazol-5-yl)-2,2-diphenyl-acetamide], the melting point is 218 °C (dec.). Also, at rat mGlu1a receptor, the EC50 was determined as 220 nM.
With `Cn1nnc(NC(=O)C2c3ccccc3Oc3ccccc32)n1` [Example 2, 9-Xanthene-9-carboxylic acid (2-methyl-2H-tetrazol-5-yl)-amide], the melting point is 247 °C (dec.). At rat mGlu1a receptor, this compound registered an EC50 of 180 nM.
For the compound `CCn1nnc(NC(=O)C(c2ccccc2)c2ccccc2)n1` [Example 3, N-(2-Ethyl-2H-tetrazol-5-yl)-2,2-diphenyl-acetamide], the melting point was 169 to 170 °C.
The same measure, in the same setting: as for `CCn1nnc(NC(=O)C2c3ccccc3Oc3ccccc32)n1` [Example 4, 9H-Xanthene-9-carboxylic acid (2-ethyl-2H-tetrazol-5-yl)-amide], the figure is 228 °C (dec.).
`O=C(Nc1nnn(CC2CC2)n1)C(c1ccccc1)c1ccccc1` [Example 5, N-(2-Cyclopropylmethyl-2H-tetrazol-5-yl)-2,2-diphenyl-acetamide] showed a melting point of 147 to 148 °C.
In turn, `O=C(Nc1nnn(CC2CC2)n1)C1c2ccccc2Oc2ccccc21` [Example 6, 9H-Xanthene-9-carboxylic acid (2-cyclopropylmethyl-2H-tetrazol-5-yl)-amide] came in with a melting point of 222 to 224 °C.
`CC(C)n1nnc(NC(=O)C(c2ccccc2)c2ccccc2)n1` [Example 7, N-(2-Isopropyl-2H-tetrazol-5-yl)-2,2-diphenyl-acetamide] gave a melting point of 175 to 177 °C. At rat mGlu1a receptor, this compound showed an EC50 of 100 nM.
`CC(C)n1nnc(NC(=O)C2c3ccccc3Oc3ccccc32)n1` [Example 8, 9H-Xanthene-9-carboxylic acid (2-isopropyl-2H-tetrazol-5-yl)-amide] gave an EC50 on rat mGlu1a receptor of 45 nM.
`O=C(Nc1nnn(CC(F)(F)F)n1)C(c1ccccc1)c1ccccc1` [Example 9, 2,2-Diphenyl-N-[2-(2,2,2-trifluoro-ethyl)-2H-tetrazol-5-yl]-acetamide] returned a melting point of 146 to 148 °C. For the same compound, it took 2000 nM to reach a half-maximal effect at rat mGlu1a receptor (EC50).
`O=C(Nc1nnn(CC(F)(F)F)n1)C1c2ccccc2Oc2ccccc21` [Example 10, 9H-Xanthene-9-carboxylic acid [2-(2,2,2-trifluoro-ethyl)-2H-tetrazol-5-yl]-amide] displayed a melting point of 209 to 210 °C. On rat mGlu1a receptor, this compound came in with an EC50 of 170 nM.
`CCCn1nnc(NC(=O)C(c2ccccc2)c2ccccc2)n1` [Example 11, 2,2-Diphenyl-N-(2-propyl-2H-tetrazol-5-yl)-acetamide] gave a melting point of 124 to 125 °C.
In the case of `CCCn1nnc(NC(=O)C2c3ccccc3Oc3ccccc32)n1` [Example 12, 9H-Xanthene-9-carboxylic acid (2-propyl-2H-tetrazol-5-yl)-amide], the melting point fell in the range of 208 to 209 °C.
Consider `COCn1nnc(NC(=O)C(c2ccccc2)c2ccccc2)n1` [Example 13, N-(2-Methoxymethyl-2H-tetrazol-5-yl)-2,2-diphenyl-acetamide], for which the melting point lay in the range of 127 to 128 °C.
The same measure, in the same setting: as for `COCn1nnc(NC(=O)C2c3ccccc3Oc3ccccc32)n1` [Example 14, 9H-Xanthene-9-carboxylic acid (2-methoxymethyl-2H-tetrazol-5-yl)-amide], the figure is 221 to 222 °C; as for `CC(C)(C)n1nnc(NC(=O)C(c2ccccc2)c2ccccc2)n1` [Example 15, N-(2-tert-Butyl-2H-tetrazol-5-yl)-2,2-diphenyl-acetamide], 191 to 192 °C.
The same measure, in the same setting: as for `CC(C)(C)n1nnc(NC(=O)C2c3ccccc3Oc3ccccc32)n1` [Example 16, 9H-Xanthene-9-carboxylic acid (2-tert-butyl-2H-tetrazol-5-yl)-amide], the figure is 230 to 231 °C; as for `O=C(Nc1nnn(C(F)F)n1)C(c1ccccc1)c1ccccc1` [Example 17, N-(2-Difluoromethyl-2H-tetrazol-5-yl)-2,2-diphenyl-acetamide], 143 to 145 °C; as for `O=C(Nc1nnn(C(F)F)n1)C1c2ccccc2Oc2ccccc21` [Example 18, 9H-Xanthene-9-carboxylic acid (2-difluoromethyl-2H-tetrazol-5-yl)-amide], 168 to 169 °C.
For `N#CCn1nnc(NC(=O)C(c2ccccc2)c2ccccc2)n1` [Example 19, N-(2-Cyanomethyl-2H-tetrazol-5-yl)-2,2-diphenyl-acetamide], the melting point was in the range of 173 to 174 °C.
In turn, `N#CCn1nnc(NC(=O)C2c3ccccc3Oc3ccccc32)n1` [Example 20, 9H-Xanthene-9-carboxylic acid (2-cyanomethyl-2H-tetrazol-5-yl)-amide] returned a melting point of 204 to 205 °C.
The compound `COC(=O)Cn1nnc(NC(=O)C(c2ccccc2)c2ccccc2)n1` [Example 21, (5-Diphenylacetylamino-tetrazol-2-yl)-acetic acid methyl ester] gave a melting point of 168 to 169 °C.
Still for that read-out and setting: as for `COC(=O)Cn1nnc(NC(=O)C2c3ccccc3Oc3ccccc32)n1` [Example 22, {5-[(9H-Xanthene-9-carbonyl)-amino]-tetrazol-2-yl}-acetic acid methyl ester], the figure is 243 to 244 °C; as for `CCn1nnc(NC(=O)C2c3ccccc3Cc3ccccc32)n1` [Example 23, 9,10-Dihydro-anthracene-9-carboxylic acid (2-ethyl-2H-tetrazol-5-yl)-amide], 206 to 207 °C.

Usually EC50 stands for the midpoint of the concentration-response curve. A lower EC50 goes with greater potency. A word on the melting point: it is the temperature, or range, at which the solid turns liquid.
